According to patent US8313751B2, “Compositions and methods for the prophylaxis or treatment of viral diseases” (priority 2003, dated 2012):
“Also recorded” adds a separate entry of the source. Like-named read-outs stand apart in the source and are kept apart here.

Key:
[1] = tested on: influenza virus (fowl plague virus, FPV); settings: mouse, in vivo, ip
[2] = tested on: influenza virus; settings: cited from earlier work
[3] = tested on: influenza A virus strain fowl plague virus (FPV); type: cell-based
[4] = tested on: influenza A virus strain fowl plague virus (FPV); type: cell-based; remark: listed apart in the source
[5] = tested on: influenza virus (fowl plague virus, FPV); parameters: species or system C57 Bl/6 mice; settings: mouse, in vivo

SMILES	animals that survived the infection [1]	average survival time of the dead animals versus control group [1]	body weight [1]	concentration from which inhibition of influenza virus infections in cell culture was observed [2] [mM]	concentration from which inhibition of influenza virus infections in cell culture was observed ([2]; conversion of the mM values) [mg/mL]	antiviral effectivity in vitro [3]	inhibition of the virus multiplication [3] [log steps]	inhibiting effect on virus multiplication [4] [log steps]	reduction of the virus titers by a factor [4]	animals that survived the infection [5]	antiviral effect compared with lower concentrations [5]	average survival time of the dead animals versus control group [5]	influenza virus multiplication in the lung and in the total organism [5]	viruses in the lung [5]	reduction of the virus titers [3]
CC(=O)Oc1ccccc1C(=O)O [ASA, acetylsalicylic acid]	approx. 20%	clearly longer	distinct reduction in body weight	5 to 10	0.9 to 1.8	have not shown in vitro any antiviral effectivity	2	> 2	10	approx. 40%	comparatively not stronger; also recorded: clearly less antivirally effective	clearly longer	distinct inhibition	Smaller doses of ASA more clearly reduced the viruses in the lung than higher doses	–
S=C(S)N1CCCC1 [PDTC, pyrrolidine dithiocarbamate]	–	–	–	–	–	–	–	–	–	–	–	–	–	–	approx. 10 fold
